Data reported in ChEMBL document CHEMBL1240349, “Influence of tigecycline on expression of virulence factors in biofilm-associated cells of methicillin-resistant Staphylococcus aureus” (2010).

How the values were obtained:
Assay type in all cases: functional
Staphylococcus aureus [1] = test: Increase in rpoC gene expression in biofilm-associated cells of epidemic methicillin-resistant Staphylococcus aureus isolate 16 at 4 times MIC incubated for 1 hr by whole genome microarray relative to untreated control
Staphylococcus aureus [2] = test: Increase in isaA expression in biofilm-associated cells of epidemic methicillin-resistant Staphylococcus aureus isolate 16-2 at 4 times MIC incubated for 1 hr by RT-PCR relative to untreated control
Staphylococcus aureus [3] = test: Decrease in sasF gene expression in biofilm-associated cells of epidemic methicillin-resistant Staphylococcus aureus isolate 16 at 4 times MIC incubated for 1 hr by RT-PCR relative to untreated control
Staphylococcus aureus [4] = test: Decrease in clpC expression in biofilm-associated cells of epidemic methicillin-resistant Staphylococcus aureus isolate 16-2 at 4 times MIC incubated for 1 hr by RT-PCR relative to untreated control
Staphylococcus aureus [5] = test: Decrease in capC gene expression in biofilm-associated cells of epidemic methicillin-resistant Staphylococcus aureus isolate 16 at 4 times MIC incubated for 1 hr by RT-PCR relative to untreated control
Staphylococcus aureus [6] = test: Decrease in clpC gene expression in biofilm-associated cells of epidemic methicillin-resistant Staphylococcus aureus isolate 16 at 4 times MIC incubated for 1 hr by whole genome microarray relative to untreated control
Staphylococcus aureus [7] = test: Increase in nusG gene expression in biofilm-associated cells of epidemic methicillin-resistant Staphylococcus aureus isolate 16 at 4 times MIC incubated for 1 hr by whole genome microarray relative to untreated control
Staphylococcus aureus [8] = test: Decrease in icaC gene expression in biofilm-associated cells of epidemic methicillin-resistant Staphylococcus aureus isolate 16 at 4 times MIC incubated for 1 hr by RT-PCR relative to untreated control
Staphylococcus aureus [9] = test: Decrease in capD gene expression in biofilm-associated cells of epidemic methicillin-resistant Staphylococcus aureus isolate 16 at 4 times MIC incubated for 1 hr by whole genome microarray relative to untreated control
Staphylococcus aureus [10] = test: Decrease in polA gene expression in biofilm-associated cells of epidemic methicillin-resistant Staphylococcus aureus isolate 16 at 4 times MIC incubated for 1 hr by whole genome microarray relative to untreated control
Staphylococcus aureus [11] = test: Increase in mnhF gene expression in biofilm-associated cells of epidemic methicillin-resistant Staphylococcus aureus isolate 16 at 4 times MIC incubated for 1 hr by whole genome microarray relative to untreated control
Staphylococcus aureus [12] = test: Increase in ssaA gene expression in biofilm-associated cells of epidemic methicillin-resistant Staphylococcus aureus isolate 16 at 4 times MIC incubated for 1 hr by whole genome microarray relative to untreated control
Staphylococcus aureus [13] = test: Increase in saeR gene expression in biofilm-associated cells of epidemic methicillin-resistant Staphylococcus aureus isolate 16 at 4 times MIC incubated for 1 hr by whole genome microarray relative to untreated control
Staphylococcus aureus [14] = test: Increase in tuf gene expression in biofilm-associated cells of epidemic methicillin-resistant Staphylococcus aureus isolate 16 at 4 times MIC incubated for 1 hr by whole genome microarray relative to untreated control
Staphylococcus aureus [15] = test: Increase in infC gene expression in biofilm-associated cells of epidemic methicillin-resistant Staphylococcus aureus isolate 16 at 4 times MIC incubated for 1 hr by whole genome microarray relative to untreated control
Staphylococcus aureus [16] = test: Increase in isaA expression in biofilm-associated cells of epidemic methicillin-resistant Staphylococcus aureus isolate 15 at 4 times MIC incubated for 1 hr by RT-PCR relative to untreated control
Staphylococcus aureus [17] = test: Decrease in mnhG expression in biofilm-associated cells of epidemic methicillin-resistant Staphylococcus aureus isolate 15 at 4 times MIC incubated for 1 hr by RT-PCR relative to untreated control
Staphylococcus aureus [18] = test: Decrease in asp23 gene expression in biofilm-associated cells of epidemic methicillin-resistant Staphylococcus aureus isolate 16 at 4 times MIC incubated for 1 hr by whole genome microarray relative to untreated control
Staphylococcus aureus [19] = test: Decrease in fnbB expression in biofilm-associated cells of epidemic methicillin-resistant Staphylococcus aureus isolate 16-2 at 4 times MIC incubated for 1 hr by RT-PCR relative to untreated control
Staphylococcus aureus [20] = test: Decrease in capG gene expression in biofilm-associated cells of epidemic methicillin-resistant Staphylococcus aureus isolate 16 at 4 times MIC incubated for 1 hr by RT-PCR relative to untreated control
Staphylococcus aureus [21] = test: Increase in fnbA gene expression in biofilm-associated cells of epidemic methicillin-resistant Staphylococcus aureus isolate 16 at 4 times MIC incubated for 1 hr by whole genome microarray relative to untreated control
Staphylococcus aureus [22] = test: Increase in rpsH gene expression in biofilm-associated cells of epidemic methicillin-resistant Staphylococcus aureus isolate 16 at 4 times MIC incubated for 1 hr by whole genome microarray relative to untreated control
Staphylococcus aureus [23] = test: Decrease in clfB expression in biofilm-associated cells of epidemic methicillin-resistant Staphylococcus aureus isolate 16-2 at 4 times MIC incubated for 1 hr by RT-PCR relative to untreated control
Staphylococcus aureus [24] = test: Increase in cna expression in biofilm-associated cells of epidemic methicillin-resistant Staphylococcus aureus isolate 15 at 4 times MIC incubated for 1 hr by RT-PCR relative to untreated control
Staphylococcus aureus [25] = test: Decrease in icaC gene expression in biofilm-associated cells of epidemic methicillin-resistant Staphylococcus aureus isolate 16 at 4 times MIC incubated for 1 hr by whole genome microarray relative to untreated control
Staphylococcus aureus [26] = test: Decrease in capB gene expression in biofilm-associated cells of epidemic methicillin-resistant Staphylococcus aureus isolate 16 at 4 times MIC incubated for 1 hr by whole genome microarray relative to untreated control
Staphylococcus aureus [27] = test: Decrease in tst expression in biofilm-associated cells of epidemic methicillin-resistant Staphylococcus aureus isolate 16-2 at 4 times MIC incubated for 1 hr by RT-PCR relative to untreated control
Staphylococcus aureus [28] = test: Increase in pbp2 gene expression in biofilm-associated cells of epidemic methicillin-resistant Staphylococcus aureus isolate 16 at 4 times MIC incubated for 1 hr by whole genome microarray relative to untreated control
Staphylococcus aureus [29] = test: Increase in cspB gene expression in biofilm-associated cells of epidemic methicillin-resistant Staphylococcus aureus isolate 16 at 4 times MIC incubated for 1 hr by whole genome microarray relative to untreated control
Staphylococcus aureus [30] = test: Increase in sstD gene expression in biofilm-associated cells of epidemic methicillin-resistant Staphylococcus aureus isolate 16 at 4 times MIC incubated for 1 hr by whole genome microarray relative to untreated control
Staphylococcus aureus [31] = test: Increase in rho gene expression in biofilm-associated cells of epidemic methicillin-resistant Staphylococcus aureus isolate 16 at 4 times MIC incubated for 1 hr by whole genome microarray relative to untreated control

Structure (SMILES): CN(C)c1cc(NC(=O)CNC(C)(C)C)c(O)c2c1C[C@H]1C[C@H]3[C@H](N(C)C)C(O)=C(C(N)=O)C(=O)[C@@]3(O)C(O)=C1C2=O [TIGECYCLINE]
- fold change (FC) (Staphylococcus aureus [1]): 3.28
- fold change (FC) (Staphylococcus aureus [2]): 3.7
- fold change (FC) (Staphylococcus aureus [3]): 1.32
- fold change (FC) (Staphylococcus aureus [4]): 19.87
- fold change (FC) (Staphylococcus aureus [5]): 1.75
- fold change (FC) (Staphylococcus aureus [6]): 2.44
- fold change (FC) (Staphylococcus aureus [7]): 4.34
- fold change (FC) (Staphylococcus aureus [8]): 2.23
- fold change (FC) (Staphylococcus aureus [9]): 2.19
- fold change (FC) (Staphylococcus aureus [10]): 2.11
- fold change (FC) (Staphylococcus aureus [11]): 3.27
- fold change (FC) (Staphylococcus aureus [12]): 2.84
- fold change (FC) (Staphylococcus aureus [13]): 2.02
- fold change (FC) (Staphylococcus aureus [14]): 7.41
- fold change (FC) (Staphylococcus aureus [15]): 6.29
- fold change (FC) (Staphylococcus aureus [16]): 1.09
- fold change (FC) (Staphylococcus aureus [17]): 1.64
- fold change (FC) (Staphylococcus aureus [18]): 8.61
- fold change (FC) (Staphylococcus aureus [19]): 1.53
- fold change (FC) (Staphylococcus aureus [20]): 1.01
- fold change (FC) (Staphylococcus aureus [21]): 2.3
- fold change (FC) (Staphylococcus aureus [22]): 14.86
- fold change (FC) (Staphylococcus aureus [23]): 1.18
- fold change (FC) (Staphylococcus aureus [24]): 1.55
- fold change (FC) (Staphylococcus aureus [25]): 2.06
- fold change (FC) (Staphylococcus aureus [26]): 2.08
- fold change (FC) (Staphylococcus aureus [27]): 5.52
- fold change (FC) (Staphylococcus aureus [28]): 3.91
- fold change (FC) (Staphylococcus aureus [29]): 5.59
- fold change (FC) (Staphylococcus aureus [30]): 3.27
- fold change (FC) (Staphylococcus aureus [31]): 2.15
